Data as given in US11571480B2, “Multi-ligand drug conjugates and uses thereof” (priority 2015, dated 2023).
pIC50: −log10 of the molar value.

Legend:
[1] = Cytotoxicity test of conjugate LDC11B; format: cell-based, human; settings: human, 293A embryonic kidney cells, incubated 15-30 min, then 2-3 days
Description: (§1) Culture medium: RPMI 1640 Medium, no folic acid
(§2) 1) human lung cancer cell H460, ovarian cancer cell SKOV3, human embryonic kidney cell 293A were incubated at 37° C., 5% CO2 in RPMI 1640 medium containing 10% fetal bovine serum, the cells were passaged every 2-3 days.
(§3) 2) human lung cancer cell H460, ovarian cancer cell SKOV3, human embryonic kidney cell 293A were plated at 1×10^3 cells per well (96-well plate) and incubated for 8-12 h at 37° C., 5% CO2.
(§4) 3) Stock solutions of LDC conjugates or control were prepared in PBS solution. 100 μL/well of serially diluted LDC conjugates or control was added to the cells in the plate and incubated for 15-30 min at 37° C., 5% CO2. The culture medium in the wells was then removed by aspiration and the cells were incubated in fresh culture medium without conjugates (150 μL/well) for 2-3 days at 37° C., 5% CO2.
(§5) 4) CellTiter 96® Aqueous One Solution Cell Proliferation Assay (Promega) was added to each well to measure the amount of […] cells, and the plate was incubated in an incubator for 1 h at 37° C., 5% CO2.
(§6) 5) The plate was read at 490 nm on a microplate reader, and the cell survivals were compared for cells with or without the treatment of LDC conjugates. The LDC drug concentrations that are required for 50% cell death (IC50 values) were determined.

Transplanted SKOV3 tumor = assay: Inhibitory assay of conjugates LDC11A, LDC11B against xenograf tumors; format: in vivo, nude mice; settings: for Body weight of mice / Tumor size: SKOV3 tumor, 10 mg/kg
Description: (§7) Animal: nude mice, aged 6-8 weeks, female
(§8) 1) human large cell lung cancer cell H460, ovarian cancer cell SKOV3, breast cancer cell line HCC1954, and human breast cancer cell SK-BR-3 were incubated at 37° C., 5% CO2 in IMDM medium containing 10% fetal bovine serum, the cells were passaged every 2-3 days.
(§9) 2) generation of tumors: 7×10^6 tumor cells were subcutaneously injected into the back of nude mice, and the mice were grouped for treatment after the tumor sizes were as large as about 100˜200 mm^3.
(§10) 3) treatment: 3 mice/group, treated with LDC11A, LDC11B, as well as controls MMAE and PBS with doses of 5 and 10 mg/kg every 5 days, three injections.
(§11) 4) the physical performance, body weights and tumor sizes of the animals were monitored. The number of animal death was recorded during the experiment.

Transplanted H460 tumor = assay: as above; format: in vivo, nude mice; settings: for Body weight of mice / Tumor size: H460 tumor, 10 mg/kg
Description: as §7, §8, §9, §10, §11

[2] = system: Transplanted HCC1954 tumor; assay: as above; format: in vivo, nude mice; settings: for Body weight of mice / Tumor size: HCC1954 tumor, 10 mg/kg
Description: as §7, §8, §9, §10, §11

[3] = system: human nasopharyngeal cancer cell line KB; assay: Cytotoxicity test of conjugate LDC1013; format: cell-based; settings: incubated 15-30 min, then 2-3 days
Description: as §1
(§12) 1) human nasopharyngeal cancer cell line KB, melanoma cell line A375, and human lung cancer cell H460 were incubated at 37° C., 5% CO2 in RPMI 1640 medium containing 10% fetal bovine serum, the cells were passaged every 2-3 days.
(§13) 2) human nasopharyngeal cancer cell line KB, melanoma cell line A375, and human lung cancer cell H460 were plated at 1×10^3 cells per well (96-well plate) and incubated for 8-12 h at 37° C., 5% CO2.
as §4, §5
(§14) 5) the plate was read at 490 nm on a microplate reader, and the cell survivals were compared for cells with or without the treatment of LDC conjugates. The LDC drug concentrations that are required for 50% cell death (IC50 values) were determined.

melanoma cell line A375 [4] = assay: Cytotoxicity test of conjugate LDC1013; format: cell-based; settings: A375, incubated 15-30 min, then 2-3 days
Description: as §1, §12, §13, §4, §5, §14

[5] = system: human lung cancer cell H460; assay: Cytotoxicity test of conjugate LDC1013; format: cell-based; settings: H460, incubated 15-30 min, then 2-3 days
Description: as §1, §12, §13, §4, §5, §14

[6] = system: human embryonic kidney cell 293A; assay: Cytotoxicity test of conjugate LDC11B; format: cell-based; settings: incubated 15-30 min, then 2-3 days
Description: as §1, §2, §3, §4, §5, §6

[7] = system: human lung cancer cell H460; assay: Cytotoxicity test of conjugate LDC11B; format: cell-based; settings: H460, incubated 15-30 min, then 2-3 days
Description: as §1, §2, §3, §4, §5, §6

[8] = system: human lung cancer cell H1299; assay: Cytotoxicity test of conjugate LDC10B; format: cell-based; settings: H1299, Incubation Time 30 min
Description: as §1
(§15) 1) human nasopharyngeal cancer cell line KB, melanoma cell line A375, human lung cancer cell H1299, chronic myeloid leukemia cell line K562, human lung cancer cell H460, ovarian cancer cell SKOV3, breast cancer cell line HCC1954, human gastric cancer cell N87, and human breast cancer cell SK-BR-3 were incubated at 37° C., 5% CO2 in RPMI 1640 medium containing 10% fetal bovine serum, the cells were passaged every 2-3 days.
(§16) 2) human nasopharyngeal cancer cell line KB, melanoma cell line A375, human lung cancer cell H1299, chronic myeloid leukemia cell line K562, human lung cancer cell H460, ovarian cancer cell SKOV3, breast cancer cell line HCC1954, human gastric cancer cell N87, and human breast cancer cell SK-BR-3 were plated at 1×10^3 cells per well (96-well plate) and incubated for 8-12 h at 37° C., 5% CO2.
(§17) 3) Stock solutions of LDC conjugates or controls were prepared in PBS solution. 100 μL/well of serially diluted LDC conjugates or controls was added to the test cells in the plates and incubated for 15-30 min at 37° C., 5% CO2. The culture medium in the wells was then removed by aspiration and the test cells were incubated in fresh culture medium without conjugates (150 μL/well) for 2-3 days at 37° C., 5% CO2.
(§18) 4) CellTiter 96® Aqueous One Solution Cell Proliferation Assay (Promega) was added to each well to measure the amount of […] cells, and each plate was incubated in an incubator for 1 h at 37° C., 5% CO2.
(§19) 5) Each plate was read at 490 nm on a microplate reader, and the cell survivals were compared for test cells with or without the treatment of LDC conjugates. The LDC drug concentrations that are required for 50% cell death (IC50 values) were determined.

[9] = system: human nasopharyngeal cancer cell line KB; assay: Cytotoxicity test of conjugate LDC10B; format: cell-based; settings: Incubation Time 15 min
Description: as §1, §15, §16, §17, §18, §19

melanoma cell line A375 [10] = assay: Cytotoxicity test of conjugate LDC10B; format: cell-based; settings: A375, Incubation Time 15 min
Description: as §1, §15, §16, §17, §18, §19

[11] = system: human breast cancer cell SK-BR-3; assay: Cytotoxicity test of conjugate LDC10B; format: cell-based; settings: SK-BR-3, Incubation Time 30 min
Description: as §1, §15, §16, §17, §18, §19

[12] = system: human gastric cancer cell N87; assay: Cytotoxicity test of conjugate LDC10B; format: cell-based; settings: N87, Incubation Time 30 min
Description: as §1, §15, §16, §17, §18, §19

[13] = system: human lung cancer cell H460; assay: Cytotoxicity test of conjugate LDC10B; format: cell-based; settings: H460, Incubation Time 30 min
Description: as §1, §15, §16, §17, §18, §19

[14] = system: chronic myeloid leukemia cell line K562; assay: Cytotoxicity test of conjugate LDC10B; format: cell-based; settings: K562, Incubation Time 30 min
Description: as §1, §15, §16, §17, §18, §19

[15] = system: breast cancer cell line HCC1954; assay: Cytotoxicity test of conjugate LDC10H; format: cell-based, human; settings: HCC1954, incubated 15-30 min, then 2-3 days
Description: as §1
(§20) 1) human lung cancer cell H1299, ovarian cancer cell SKOV3, breast cancer cell line HCC1954, and human lung cancer cell H460 were incubated at 37° C., 5% CO2 in RPMI 1640 medium containing 10% fetal bovine serum, the cells were passaged every 2-3 days.
(§21) 2) human lung cancer cell H1299, ovarian cancer cell SKOV3, breast cancer cell line HCC1954, and human lung cancer cell H460 were plated at 1×10^3 cells per well (96-well plate) and incubated for 8-12 h at 37° C., 5% CO2.
as §4, §5, §14

[16] = system: ovarian cancer cell SKOV3; assay: Cytotoxicity test of conjugate LDC10H; format: cell-based, human; settings: SKOV3, incubated 15-30 min, then 2-3 days
Description: as §1, §20, §21, §4, §5, §14

[17] = system: human nasopharyngeal cancer cell line KB; assay: Cytotoxicity test of conjugate LDC13B; format: cell-based; settings: KB, incubated 15-30 min, then 2-3 days
Description: as §1
1) human nasopharyngeal cancer cell line KB, human colon carcinoma HCT-116, human prostatic cancer cell PC-3, human gastric cancer cell line GTL-16, human endometrial cancer cell HEC-1A, and human gastric cancer cell N87 were incubated at 37° C., 5% CO2 in RPMI 1640 medium containing 10% fetal bovine serum, the cells were passaged every 2-3 days.
2) human nasopharyngeal cancer cell line KB, human colon carcinoma HCT-116, human prostatic cancer cell PC-3, human gastric cancer cell line GTL-16, human endometrial cancer cell HEC-1A, and human gastric cancer cell N87 were plated at 1×10^3 cells per well (96-well plate) and incubated for 8-12 h at 37° C., 5% CO2.
as §4, §5, §14

[18] = system: ovarian cancer cell SKOV3; assay: Cytotoxicity test of conjugate LDC11B; format: cell-based, human; settings: SKOV3, incubated 15-30 min, then 2-3 days
Description: as §1, §2, §3, §4, §5, §6

[19] = system: breast cancer cell line HCC1954; assay: Cytotoxicity test of conjugate LDC10B; format: cell-based, human; settings: HCC1954, Incubation Time 30 min
Description: as §1, §15, §16, §17, §18, §19

[20] = system: ovarian cancer cell SKOV3; assay: Cytotoxicity test of conjugate LDC10B; format: cell-based, human; settings: SKOV3, Incubation Time 30 min
Description: as §1, §15, §16, §17, §18, §19

[21] = system: human lung cancer cell H1299; assay: Cytotoxicity test of conjugate LDC10H; format: cell-based; settings: H1299, incubated 15-30 min, then 2-3 days
Description: as §1, §20, §21, §4, §5, §14

[22] = system: human lung cancer cell H460; assay: Cytotoxicity test of conjugate LDC10H; format: cell-based; settings: H460, incubated 15-30 min, then 2-3 days
Description: as §1, §20, §21, §4, §5, §14

CC[C@H](C)[C@@H]([C@@H](CC(=O)N1CCC[C@H]1[C@H](OC)[C@@H](C)C(=O)N[C@H](C)[C@@H](O)c1ccccc1)OC)N(C)C(=O)[C@@H](NC(=O)[C@H](C(C)C)N(C)C(=O)OCc1ccc(NC(=O)[C@H](CCCNC(N)=O)NC(=O)[C@@H](NC(=O)CCCCCN2C(=O)CC(SC[C@H](NC(=O)CNC(=O)[C@@H]3CCCN3C(=O)[C@H](CCCNC(=N)N)NC(=O)[C@H](CC(C)C)NC(=O)CNC(=O)[C@H](Cc3ccc(O)cc3)NC(=O)[C@H](CO)NC(=O)[C@H](Cc3c[nH]c4ccccc34)NC(=O)[C@H](Cc3c[nH]cn3)NC(=O)[C@H](CCC(=O)O)NC(=O)CC[C@H](NC(=O)c3ccc(NCC4=Nc5c([nH]c(N)nc5=O)NC4)cc3)C(=O)O)C(=O)O)C2=O)C(C)C)cc1)C(C)C (stereo partly drawn) [LDC11B]
pIC50 [1]: 6.28
tumor growth (in words) (Transplanted SKOV3 tumor; SKOV3, three injections at 10 mg/kg): can inhibit the tumor growth
Body weight of mice (Transplanted SKOV3 tumor; Before Injection): 22.11 g
Tumor size (Transplanted SKOV3 tumor; Before Injection): 169.22 mm^3
Body weight of mice (Transplanted SKOV3 tumor; Five days after Injection 1): 24.28 g
Tumor size (Transplanted SKOV3 tumor; Five days after Injection 1): 137.66 mm^3
Body weight of mice (Transplanted SKOV3 tumor; Five days after Injection 2): 23.6 g
Tumor size (Transplanted SKOV3 tumor; Five days after Injection 2): 76.13 mm^3
Body weight of mice (Transplanted SKOV3 tumor; Five days after Injection 3): 24.92 g
Tumor size (Transplanted SKOV3 tumor; Five days after Injection 3): 27.84 mm^3
tumor growth (in words) (Transplanted H460 tumor; H460, three injections at 10 mg/kg): can inhibit the tumor growth
Body weight of mice (Transplanted H460 tumor; Before Injection): 21.85 g
Tumor size (Transplanted H460 tumor; Before Injection): 225.32 mm^3
Body weight of mice (Transplanted H460 tumor; Five days after Injection 1): 22.2 g
Tumor size (Transplanted H460 tumor; Five days after Injection 1): 108.73 mm^3
Body weight of mice (Transplanted H460 tumor; Five days after Injection 2): 22.55 g
Tumor size (Transplanted H460 tumor; Five days after Injection 2): 0 mm^3
Body weight of mice (Transplanted H460 tumor; Five days after Injection 3): 22.38 g
Tumor size (Transplanted H460 tumor; Five days after Injection 3): 0 mm^3
tumor growth (in words) ([2]; HCC1954, three injections at 10 mg/kg): can inhibit the tumor growth
Body weight of mice ([2]; Before Injection): 22.76 g
Tumor size ([2]; Before Injection): 218.76 mm^3
Body weight of mice ([2]; Five days after Injection 1): 22.56 g
Tumor size ([2]; Five days after Injection 1): 87.51 mm^3
Body weight of mice ([2]; Five days after Injection 2): 23.15 g
Tumor size ([2]; Five days after Injection 2): 0 mm^3
Body weight of mice ([2]; Five days after Injection 3): 23.48 g
Tumor size ([2]; Five days after Injection 3): 0 mm^3

Folate-(PEG)3-MC-Val-Cit-PAB-MMAE [LDC1]
pIC50 [3]: 5.40
pIC50 (melanoma cell line A375 [4]): 4.43
pIC50 [5]: 5.03
pIC50 [6]: 6.15
pIC50 [7]: 6.28
pIC50 [8]: 6.58
pIC50 [9]: 4.82
pIC50 (melanoma cell line A375 [10]): 5.00
pIC50 [11]: 7.01
pIC50 [12]: 6.62
pIC50 [13]: 6.72
pIC50 [14]: 7.03
pIC50 [15]: 7.11
pIC50 [16]: 6.70
pIC50 [17]: 7.19
pIC50 [18]: 6.53
pIC50 [19]: 7.03
pIC50 [20]: 6.99
pIC50 [21]: 6.73
pIC50 [22]: 6.86
